Measurements published in PMC7673538 (PLoS Biology, 2020).
Like-named read-outs stand apart in the source and are kept apart here.

Key:
CV-B3 [1] = experiment: microbe, parasite or virus in culture; type: cell-based, coxsackievirus B3; details: Enterovirus B, CVB3, BGM
PV-1 = experiment: microbe, parasite or virus in culture; type: cell-based, poliovirus 1; details: Enterovirus C, HeLa R19, read-out: EC50 PV-1
HRV-A2 = experiment: microbe, parasite or virus in culture; type: cell-based, human rhinovirus; details: Human rhinovirus sp., HRVA2, HeLa R19, read-out: EC50 HRV-A2
in vitro [2] = details: human
CV-B3 [3] = experiment: microbe, parasite or virus in culture; type: cell-based, coxsackievirus B3; details: for EC50: Enterovirus B
EV-A71 = experiment: microbe, parasite or virus in culture; type: cell-based, enterovirus A71; details: Enterovirus A
in vitro [4] = details: human; remark: listed apart in the source
HRV-B14 = experiment: microbe, parasite or virus in culture; type: cell-based, human rhinovirus; details: Human rhinovirus sp.
EV-D68 = experiment: microbe, parasite or virus in culture; type: cell-based, enterovirus D68; details: Enterovirus D
in vitro [5] = details: monkey
CV-B3 [6] = experiment: microbe, parasite or virus in culture; type: cell-based, coxsackievirus B3; details: Enterovirus B
CV-A24 = experiment: microbe, parasite or virus in culture; type: cell-based, coxsackievirus A24; details: Enterovirus C, CVA24, HeLa R19, read-out: EC50 CV-A24
[7] = CVB3, HeLa R19, read-out: CV-B3 EC50 Average
[8] = CVB3, HeLa R19, read-out: CV-B3 Exp 1 EC50
[9] = CVB3, HeLa R19, read-out: CV-B3 Exp2 EC50
[10] = CVB3, HeLa R19, read-out: EC50 HelaR19 Average
[11] = CVB3, HeLa R19, read-out: Exp 1 EC50 HelaR19
[12] = CVB3, HeLa R19, read-out: Exp 2 EC50 HelaR19
[13] = EVA71, HeLa R19, read-out: EC50 EV-A71
[14] = HRVB14, HeLa R19, read-out: EC50 HRV-B14
[15] = EVD68, HeLa R19, read-out: EC50 EV-D68
[16] = EVD68, HeLa R19, read-out: EC50 Exp1
[17] = EVD68, HeLa R19, read-out: EC50 Exp2
[18] = CVB3, HAP1, read-out: EC50 Hap1 Average
[19] = CVB3, HAP1, read-out: Exp 1 EC50 Hap1
[20] = CVB3, HAP1, read-out: Exp 2 EC50 Hap1
[21] = EVA71, HeLa R19, read-out: EC50 Exp1
[22] = EVA71, HeLa R19, read-out: EC50 Exp2

COc1ccc(N(Cc2ccc(F)cc2)C(=O)c2ccc[nH]2)cc1 [Compound 5c, N-(4-fluorobenzyl)-N-(4-methoxyphenyl)-1H-pyrrole-2-carboxamide]
EC50 (CV-B3 [1]; read-out: EC50 BGM Average): 4.18 µM | EC50 (CV-B3 [1]; read-out: Exp 1 EC50 BGM): 3.86 µM | EC50 (CV-B3 [1]; read-out: Exp 2 EC50 BGM): 4.5 µM | EC50 (PV-1): > 30 µM | EC50 (HRV-A2): > 30 µM | CC50 (in vitro [2]; CC50 Average): > 30 µM | CC50 (in vitro [2]; CC50 HelaR19 Average): > 100 µM | CC50 (in vitro [2]; Exp 1 CC50): > 30 µM | CC50 (in vitro [2]; Exp 1 CC50 HelaR19): > 100 µM | CC50 (in vitro [2]; Exp2 CC50): > 30 µM | CC50 (in vitro [2]; Exp 2 CC50 HelaR19): > 100 µM | EC50 (CV-B3 [3]; CVB3, HeLa): 4.82 ± 0.14 µM | EC50 (CV-B3 [3]; [7]): 3.01 µM | EC50 (CV-B3 [3]; [8]): 3.21 µM | EC50 (CV-B3 [3]; [9]): 2.81 µM | EC50 (CV-B3 [3]; [10]): 4.81 µM | EC50 (CV-B3 [3]; [11]): 4.95 µM | EC50 (CV-B3 [3]; [12]): 4.68 µM | EC50 (EV-A71; [13]): > 30 µM | CC50 (in vitro [4]; CC50): > 100 µM | CC50 (in vitro [4]; CC50 Hap1 Average): > 100 µM | CC50 (in vitro [4]; Exp 1 CC50 Hap1): > 100 µM | CC50 (in vitro [4]; Exp 2 CC50 Hap1): > 100 µM | EC50 (HRV-B14; [14]): > 30 µM | EC50 (EV-D68; [15]): 3.47 ± 0.08 µM | EC50 (EV-D68; [16]): 3.39 µM | EC50 (EV-D68; [17]): 3.54 µM | cytotoxicity (in words) (HeLa R19 cells): no cytotoxicity | CC50 (in vitro [5]; CC50): > 100 µM | CC50 (in vitro [5]; CC50 BGM Average): 56 µM | CC50 (in vitro [5]; Exp 1 CC50 BGM): 58 µM | CC50 (in vitro [5]; Exp 2 CC50 BGM): 54 µM | EC50 (CV-B3 [6]; [18]): 2.52 µM | EC50 (CV-B3 [6]; [19]): 2.05 µM | EC50 (CV-B3 [6]; [20]): 2.99 µM | EC50 (CV-A24): > 30 µM

COc1ccc(N(Cc2ccc(C(F)(F)F)cc2)C(=O)c2ccco2)cc1 [Compound 19e, N-(4-Methoxyphenyl)-N-(4-(trifluoromethyl)benzyl)furan-2-carboxamide]
EC50 (CV-B3 [1]; read-out: EC50 BGM Average): 2.41 µM | EC50 (CV-B3 [1]; read-out: Exp 1 EC50 BGM): 2.05 µM | EC50 (CV-B3 [1]; read-out: Exp 2 EC50 BGM): 2.76 µM | EC50 (PV-1): > 30 µM | EC50 (HRV-A2): > 30 µM | CC50 (in vitro [2]; CC50 Average): > 30 µM | CC50 (in vitro [2]; CC50 HelaR19 Average): 54 µM | CC50 (in vitro [2]; Exp 1 CC50): > 30 µM | CC50 (in vitro [2]; Exp 1 CC50 HelaR19): 53 µM | CC50 (in vitro [2]; Exp2 CC50): > 30 µM | CC50 (in vitro [2]; Exp 2 CC50 HelaR19): 55 µM | effect of the substitution on antiviral activity against CV-B3 (in words) (CV-B3 [3]): only marginally affected antiviral activity | EC50 (CV-B3 [3]; [7]): 0.86 µM | EC50 (CV-B3 [3]; [8]): 0.73 µM | EC50 (CV-B3 [3]; [9]): 0.98 µM | EC50 (CV-B3 [3]; [10]): 0.93 µM | EC50 (CV-B3 [3]; [12]): 0.99 µM | EC50 (EV-A71; EVA71, HeLa R19, read-out: EC50 Average): 4.07 µM | EC50 (EV-A71; [13]): 4.08 ± 0.99 µM | EC50 (EV-A71; [21]): 3.09 µM | EC50 (EV-A71; [22]): 5.06 µM | CC50 (in vitro [4]; CC50 Hap1 Average): 54.9 µM | CC50 (in vitro [4]; Exp 1 CC50 Hap1): 55.3 µM | CC50 (in vitro [4]; Exp 2 CC50 Hap1): 54.5 µM | EC50 (HRV-B14; HRVB14, HeLa R19, read-out: EC50 Exp1): 7.9 µM | EC50 (HRV-B14; HRVB14, HeLa R19, read-out: EC50 Exp2): 8.86 µM | EC50 (HRV-B14; [14]): 8.38 ± 0.48 µM | EC50 (EV-D68; [15]): 4.47 ± 0.26 µM | EC50 (EV-D68; [16]): 4.72 µM | EC50 (EV-D68; [17]): 4.21 µM | cytotoxicity (in words) (HeLa R19 cells; human, monkey): cytotoxicity in a similar range as the parental compound 1 | CC50 (in vitro [5]; CC50 BGM Average): 55.9 µM | CC50 (in vitro [5]; Exp 1 CC50 BGM): 55 µM | CC50 (in vitro [5]; Exp 2 CC50 BGM): 56.9 µM | EC50 (CV-B3 [6]; [18]): 2.85 µM | EC50 (CV-B3 [6]; [19]): 2.14 µM | EC50 (CV-B3 [6]; [20]): 3.56 µM | EC50 (CV-A24): > 30 µM

O=C(c1ccc[nH]1)N(Cc1ccc(C(F)(F)F)cc1)c1ccccc1 [Compound 22, N-Phenyl-N-(4-(trifluoromethyl)benzyl)-1H-pyrrole-2-carboxamide]
EC50 (CV-B3 [1]; read-out: EC50 BGM Average): 2.28 µM | EC50 (CV-B3 [1]; read-out: Exp 1 EC50 BGM): 2.55 µM | EC50 (CV-B3 [1]; read-out: Exp 2 EC50 BGM): 2.01 µM | EC50 (PV-1): > 30 µM | EC50 (HRV-A2): > 30 µM | CC50 (in vitro [2]; CC50 Average): > 30 µM | CC50 (in vitro [2]; CC50 HelaR19 Average): > 100 µM | CC50 (in vitro [2]; Exp 1 CC50): > 30 µM | CC50 (in vitro [2]; Exp 1 CC50 HelaR19): > 100 µM | CC50 (in vitro [2]; Exp2 CC50): > 30 µM | CC50 (in vitro [2]; Exp 2 CC50 HelaR19): > 100 µM | effect of the substitution on antiviral activity against CV-B3 (in words) (CV-B3 [3]): little, if any, effect on antiviral activity | EC50 (CV-B3 [3]; [7]): 1.5 µM | EC50 (CV-B3 [3]; [8]): 1.42 µM | EC50 (CV-B3 [3]; [9]): 1.58 µM | EC50 (CV-B3 [3]; [10]): 2.6 µM | EC50 (CV-B3 [3]; [11]): 2.69 µM | EC50 (CV-B3 [3]; [12]): 2.51 µM | EC50 (EV-A71; [13]): 1.27 ± 0.49 µM | EC50 (EV-A71; [21]): 0.78 µM | EC50 (EV-A71; [22]): 1.76 µM | CC50 (in vitro [4]; CC50): > 100 µM | CC50 (in vitro [4]; CC50 Hap1 Average): > 100 µM | CC50 (in vitro [4]; Exp 1 CC50 Hap1): > 100 µM | CC50 (in vitro [4]; Exp 2 CC50 Hap1): > 100 µM | EC50 (HRV-B14; [14]): > 30 µM | EC50 (EV-D68; [15]): 12.4 ± 0.81 µM | EC50 (EV-D68; [16]): 11.6 µM | EC50 (EV-D68; [17]): 13.2 µM | cytotoxicity (in words) (HeLa R19 cells): did not show any cytotoxicity | CC50 (in vitro [5]; CC50): > 100 µM | CC50 (in vitro [5]; CC50 BGM Average): > 100 µM | CC50 (in vitro [5]; Exp 1 CC50 BGM): > 100 µM | CC50 (in vitro [5]; Exp 2 CC50 BGM): > 100 µM | EC50 (CV-B3 [6]; [18]): 2.69 µM | EC50 (CV-B3 [6]; [19]): 2.5 µM | EC50 (CV-B3 [6]; [20]): 2.87 µM | EC50 (CV-A24): > 30 µM
